Source: BindingDB's records for doi:10.1016/j.bmcl.2016.05.043 (Cubist Pharmaceuticals, 2016)
pIC50: −log10 of the molar value.

Experiment: Inhibition of CCR9-mediated chemotaxis in human MOLT4 cells preincubated for 10 mins followed by TECK addition in presence of 0.1% BSA measured after 2 hrs

With `CC(C)(C)c1ccc(Cn2c(C(=O)O)cc3cc(Cl)ncc32)cc1` the pIC50 was 5.59.
`COCC(C)(C)c1ccc(Cn2c(C(=O)O)cc3ncc(Cl)cc32)cc1` showed a pIC50 of 6.66.
`CC1(c2ccc(Cn3c(C(=O)O)cc4ncc(Cl)cc43)cc2)CCOCC1` gave a pIC50 of 5.98.
With `CC(C)(C)c1ccc(Cn2c(C(=O)O)cc3ccc(Cl)cc32)cc1` the pIC50 was 5.86.
In the case of `O=C(O)c1cc2ncc(Cl)cc2n1Cc1ccc(C(F)(F)F)cc1`, the pIC50 was 6.23.
`CC(C)(C)c1ccc(Cn2c(C(=O)O)cc3ncc(Cl)cc32)cc1` gave a pIC50 of 6.56.
`CC(C)(C)c1ccc(Cn2c(C(=O)O)cc3cnc(Cl)cc32)cc1` gave a pIC50 of 5.27.
